Measurements from US9206190B2 (priority 2008, dated 2015).

Columns and labels:
rats [1] = conditions: rat, in vivo
rats [2] = conditions: rat, in vivo; remark: listed apart in the source

## CC(C)C[C@H](CN)CC(=O)O [Pregabalin]
Rats [1]
  effect on left and right paw withdrawal latencies compared to vehicle control: failed to have a significant effect
Rats [2]
  sedative clinical symptoms: dose-dependant increase in the level of sedative clinical symptoms
